{"source": "paper PMC5867665", "about": "“Targeting Multiple Effector Pathways in Pancreatic Ductal Adenocarcinoma with a G-Quadruplex-Binding Small Molecule” (Journal of Medicinal Chemistry, 2018)", "key": {"[1]": {"test_system": "PANC-1 and MIA PaCa-2 cells", "experiment": "RNA-seq gene expression, genes common to PANC-1 and MIA PaCa-2", "assay_type": "cell-based, human", "excerpt": "CM03 is a potent G4 ligand, as shown by the FRET and quantitative binding experiments reported here. We therefore reasoned that the potent CM03 antiproliferative activity on PDAC cells could be mediated through a G4-targeting mechanism. To test this hypothesis, we determined whether transcriptome changes upon early CM03 treatment were correlated with G4 presence in promoters and/or gene bodies. […] The time and dose of CM03 treatment were selected to reveal initial but robust mRNA changes while minimizing chronic effects due to cell toxicity. In both cell lines, the number of genes with altered expression (as defined by >0.5 increase in Log 2 of fold change [Log2 FC], or < −0.5 decrease; false discovery rate [FDR] < 0.1) increased with duration of CM03 treatment. In PANC-1 cells 2165 genes at 6 h and 3977 genes at 24 h were seen to change, while in MIA PaCa-2 cells, 5306 genes changed at 6 h and 5477 genes at 24 h compared to untreated controls (Supporting Information, Table 1). […] To validate that the targeting of G4-containing genes is not a general feature of antiproliferative agents, we also examined the effects of the first-line therapeutic agent for PDAC, gemcitabine,[37] a potent antiproliferative DNA synthesis inhibitor whose mechanism of action is G4-independent and which remains a standard therapy option in advanced PDAC. Both cell lines were treated with a range of gemcitabine concentrations (Supporting Information, Figure 4, Table 4) for 6 or 24 h.\nThe PDAC cell lines PANC-1 (ATCC, catalogue no. CRL-1469) and MIA PaCa-2 (ATCC, catalogue no. CRL-142) were maintained in DMEM (ThermoFisher, catalogue no. 11965092) supplemented with 10% (v/v) heat inactivated FBS (ThermoFisher) in a humidified atmosphere containing 5% CO2 at 37 °C. Cell lines were confirmed mycoplasma free by RNA-capture ELISA, and their genotypes were certified by STR profiling.\nPANC-1 (0.35 × 10^6 cells/well) and MIA PaCa-2 (1.5 × 10^6 cells/well) cell lines were seeded overnight in 60 mm plates. Next day, cells were treated with 400 nM CM03 for 6 and 24 h. For gemcitabine treatment, cells were treated for 6 and 24 h with DMSO or 30 nM, 100 nM, 300 nM, 1 μM, 3 μM, and 10 μM gemcitabine-HCL for PANC-1 cells and 30 nM, 300 nM, and 3 μM gemcitabine-HCl for MIA PaCa-2 cells. Total RNA was extracted using the Qiagen RNeasy Plus Mini Kit (ThermoFisher, catalogue no. 74134) as per the manufacturer’s instructions. RNA quality (RIN > 9.0) was checked with an Aligent 2100 bioanalyzer RNA 6000 Nano Chip, and RNA concentration was quantified using a Qubit fluorometer (ThermoFisher) and Qubit RNA HS Assay Kit (Qiagen, catalogue no. Q32852). RNA-seq libraries were then generated using the Illumina Truseq RNA HT (stranded mRNA) kit (Illumina, catalogue no. RS-122–2103) as per the manufacturer’s instructions and sequenced using an Illumina HiSeq4000.\nFastq raw sequencing files were preprocessed using cutadapt[81] to remove sequencing adapters and low quality sequencing tails (options −q 10) and then aligned to the human genome (GRCh37/hg19) using tophat2[82] and using the UCSC gtf file provided by Illumina iGenomes as an annotation file (http://support.illumina.com/sequencing/sequencing_software/igenome.html). Gene counts were calculated using htseq-count[83] and the same gtf file. Differential expression analysis was done using the R package edgeR.[84] Differentially expressed genes were estimated independently for both cell lines (MIA PaCa-2 and PANC-1) and for the different time points (6 and 24 h) and were then intersected to inspect the common genes. The sequencing data is available at the GEO public functional genomics data repository (https://www.ncbi.nlm.nih.gov/geo/) as GSE105083. Details of the putative G4 sequence (PQs) analysis are given in the Supporting Information."}, "PDAC MIA PaCa-2 cells": {"test_system": "PDAC MIA PaCa-2 cells", "experiment": "96 h SRB growth inhibition assay, MIA PaCa-2", "assay_type": "cell-based, human", "conditions": "96 h SRB IC50", "method": "Compounds were screened with a 96 h SRB (sulforhodamine B) assay for their antiproliferative activity in a panel of human cancer cell lines comprising lung adenocarcinoma (A549), breast adenocarcinoma (MCF7), and PDAC (MIA PaCa-2 and PANC-1) cell lines, as well as a fetal lung fibroblast-like nononcogenic control cell line (WI-38) (Figure 1f). […] Gemcitabine is also active in these lines at low nanomolar levels, although less so in MIA PaCa-2 (IC50 19 ± 5 nM) and more so in BX-PC3 cells (6 ± 2 nM).\nAll cell lines were purchased from ATCC and maintained in appropriate medium supplemented with 10% fetal bovine serum (Invitrogen, UK), 2 mM L-glutamine (Invitrogen, Netherlands), and other components as specified by the suppliers. Cell lines were maintained at 37 °C, 5% CO2, and routinely passaged. Drugs were dissolved in H2O and filtered through 0.22 μm pore-size filter units (stock 10 mM) before addition to appropriate cell line media. Cellular growth inhibition was measured using the sulforhodamine B (SRB) assay in 96-well plates as described previously.[78] The 50% inhibitory concentrations (IC50) were determined by taking the mean absorbance at 540 nm for each drug concentration expressed as a percentage of the absorbance of untreated control wells."}, "hERG": {"biological_target": "hERG (Homo sapiens, UniProt Q12809)", "sequence (Q12809 whole entry)": "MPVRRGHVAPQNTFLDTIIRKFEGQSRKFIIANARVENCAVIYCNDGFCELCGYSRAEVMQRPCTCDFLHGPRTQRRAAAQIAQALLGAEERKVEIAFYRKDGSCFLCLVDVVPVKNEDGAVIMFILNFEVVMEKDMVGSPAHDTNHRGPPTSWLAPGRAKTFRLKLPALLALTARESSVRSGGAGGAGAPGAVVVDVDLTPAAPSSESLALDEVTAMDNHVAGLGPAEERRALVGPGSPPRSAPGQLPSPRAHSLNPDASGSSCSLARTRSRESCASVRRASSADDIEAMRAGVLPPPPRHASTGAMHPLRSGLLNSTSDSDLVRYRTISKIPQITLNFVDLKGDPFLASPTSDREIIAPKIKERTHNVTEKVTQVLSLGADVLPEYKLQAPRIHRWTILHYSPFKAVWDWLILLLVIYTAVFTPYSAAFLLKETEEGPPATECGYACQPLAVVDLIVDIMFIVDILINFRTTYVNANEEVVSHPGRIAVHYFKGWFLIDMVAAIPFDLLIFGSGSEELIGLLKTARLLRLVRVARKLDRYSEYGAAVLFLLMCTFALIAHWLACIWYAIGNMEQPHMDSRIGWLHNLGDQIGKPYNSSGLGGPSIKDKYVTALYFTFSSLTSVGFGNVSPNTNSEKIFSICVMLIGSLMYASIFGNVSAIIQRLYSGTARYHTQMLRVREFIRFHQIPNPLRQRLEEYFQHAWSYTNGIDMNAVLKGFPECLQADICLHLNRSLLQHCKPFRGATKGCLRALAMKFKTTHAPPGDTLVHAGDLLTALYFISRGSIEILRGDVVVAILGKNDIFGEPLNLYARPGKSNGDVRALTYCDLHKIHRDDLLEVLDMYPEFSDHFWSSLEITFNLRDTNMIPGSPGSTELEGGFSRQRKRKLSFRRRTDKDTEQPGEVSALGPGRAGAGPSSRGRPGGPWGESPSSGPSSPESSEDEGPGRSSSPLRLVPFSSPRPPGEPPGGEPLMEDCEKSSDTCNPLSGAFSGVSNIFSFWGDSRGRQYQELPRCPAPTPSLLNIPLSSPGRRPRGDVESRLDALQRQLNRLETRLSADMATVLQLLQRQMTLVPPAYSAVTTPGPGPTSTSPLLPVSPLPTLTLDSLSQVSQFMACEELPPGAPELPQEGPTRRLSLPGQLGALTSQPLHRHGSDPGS", "experiment": "hERG liability (unpublished data)"}, "[2]": {"conditions": "RNA-seq, 400 nM CM03, 6 h, both cell lines combined"}, "[3]": {"conditions": "RNA-seq, 400 nM CM03, 24 h, both cell lines combined"}}}
{"smiles": "O=C1c2ccc3c4c(c(NCCN5CCCC5)cc(c24)C(=O)N1CCCN1CCOCC1)C(=O)N(CCCN1CCOCC1)C3=O", "note": "[CM03, 2,7-bis(3-morpholinopropyl)-4-((2-(pyrrolidin-1-yl)ethyl)amino)benzo[lmn][3,8]phenanthroline-1,3,6,8(2H,7H)-tetraone]", "values": [{"measurement": "genes changed in both cell lines", "setting": "[1]; 400 nM CM03, 6 h", "result": 1185}, {"measurement": "genes changed in both cell lines", "setting": "[1]; 400 nM CM03, 24 h", "result": 1917}, {"measurement": "KRAS mRNA expression", "setting": "[1]; RNA-seq, 400 nM CM03, 6 and 24 h, either pancreatic cell line", "result": "unaffected"}, {"measurement": "A1BG combined_logFC.6h.both", "setting": "[1]; [2]", "result": 0.1086}, {"measurement": "A2LD1 combined_logFC.6h.both", "setting": "[1]; [2]", "result": -0.2585}, {"measurement": "AAAS combined_logFC.6h.both", "setting": "[1]; [2]", "result": -0.007867}, {"measurement": "AACS combined_logFC.6h.both", "setting": "[1]; [2]", "result": 0.04302}, {"measurement": "A1BG combined_logFC.24h.both", "setting": "[1]; [3]", "result": -0.3316}, {"measurement": "A2LD1 combined_logFC.24h.both", "setting": "[1]; [3]", "result": -0.03116}, {"measurement": "A4GALT combined_logFC.24h.both", "setting": "[1]; [3]", "result": 0.4104}, {"measurement": "AACS combined_logFC.24h.both", "setting": "[1]; [3]", "result": -0.1174}, {"measurement": "selectivity for MIA PaCa-2 compared to MCF-7 cells", "setting": "PDAC MIA PaCa-2 cells", "result": "> 20", "unit": "fold"}, {"measurement": "hERG liabilities", "setting": "hERG", "result": "neither MM41 nor CM03 show significant hERG liabilities"}]}
